These results are taken from patent publication US7868005B2, “Pyrazinyl substituted piperazine-piperidines with CXCR3 antagonist activity” (Schering Corporation, priority 2005, dated 2011).

The IC50 is the concentration at which inhibition is half-maximal.

Some results are limits rather than exact numbers.

In the assay the target is T1, human CXCR3 (N-delta 4) (Homo sapiens, UniProt P49682).
T1 construct: CD8 leader (N); Flag; expressed in transfected cells; membranes prepared
T1 sequence (P49682 5-368 limits assumed): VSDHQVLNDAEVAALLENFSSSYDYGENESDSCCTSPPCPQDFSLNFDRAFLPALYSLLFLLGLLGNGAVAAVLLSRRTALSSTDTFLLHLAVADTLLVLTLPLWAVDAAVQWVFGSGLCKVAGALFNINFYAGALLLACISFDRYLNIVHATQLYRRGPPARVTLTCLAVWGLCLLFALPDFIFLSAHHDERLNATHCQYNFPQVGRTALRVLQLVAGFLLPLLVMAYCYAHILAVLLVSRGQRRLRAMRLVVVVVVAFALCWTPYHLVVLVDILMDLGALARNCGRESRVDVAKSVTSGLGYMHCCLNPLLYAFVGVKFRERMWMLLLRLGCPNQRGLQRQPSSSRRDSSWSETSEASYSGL
The assay is described as follows: Human CXCR3 (N-delta 4) Scintillation Proximity Assay (SPA), [125I] IP-10 binding to Ba/F3-hCXCR3 membranes. To be noted: IC50 rating, Table 1; read-out: IC50. For orientation: In a scintillation proximity assay essentially only radioactivity close to the scintillant gives light.
`CC[C@H]1CN(c2nc(N)c(C(=O)NCCO)nc2Cl)CCN1C1CCN(Cc2ccc(-c3csnn3)cc2)CC1` [compound 154]: the IC50 is under 25 nM. The result for `CC[C@H]1CN(c2nc(N)c(C(=O)NCCO)nc2Cl)CCN1C1CCN(Cc2ccc(Cl)c(F)c2O)CC1` [compound 155] reads under 25 nM.

With `CC[C@H]1CN(c2nc(N)c(C(=O)NCCO)nc2Cl)CCN1C1CCN(Cc2ccc(Cl)cc2NC(N)=O)CC1` [compound 156], the IC50 is under 25 nM.

Consider `CCNC(=O)Nc1cc(Cl)ccc1CN1CCC(N2CCN(c3nc(N)c(C(=O)NCCO)nc3Cl)C[C@@H]2CC)CC1` [compound 157], for which the IC50 was under 25 nM.

Take `CC[C@H]1CN(c2nc(N)c(C(=O)NCCO)nc2Cl)CCN1C1CCN(Cc2ccc(F)cc2F)CC1` [compound 158]: the IC50 is under 25 nM. Regarding `CC[C@H]1CN(c2nc(N)c(C(=O)NCCO)nc2Cl)CCN1C1CCN(Cc2cc(F)c(Cl)cc2O)CC1` [compound 159], the IC50 was under 25 nM. The same measure for `CC[C@H]1CN(c2nc(N)c(C(=O)NCCO)nc2Cl)CCN1C1CCN(Cc2ccc(Cl)cc2C(=O)NC)CC1` [compound 160]: under 25 nM; for `CC[C@H]1CN(c2nc(N)c(C(=O)NCCO)nc2Cl)CCN1C1CCN(Cc2ccc(Cl)cc2-c2nnn[nH]2)CC1` [compound 161]: under 25 nM; for `CC[C@H]1CN(c2nc(N)c(C(=O)NCCO)nc2Cl)CCN1C1CCN(Cc2ccc(Oc3ccc(F)cc3)cc2)CC1` [compound 162]: under 25 nM. The same measure for `CC[C@H]1CN(c2nc(N)c(C(=O)NCCO)nc2Cl)CCN1C1CCN(Cc2ccc(C#N)cc2OCCOC)CC1` [compound 163]: under 25 nM; for `CC[C@H]1CN(c2nc(N)c(C(=O)NCCO)nc2Cl)CCN1C1CCN(Cc2ccc(Cl)cc2C(=O)O)CC1` [compound 164]: under 25 nM; for `CC[C@H]1CN(c2nc(N)c(C(=O)NCCO)nc2Cl)CCN1C1CCN(Cc2cc(F)c(Cl)cc2OCCNS(C)(=O)=O)CC1` [compound 165]: under 25 nM. As for `CC[C@H]1CN(c2nc(N)c(C(=O)NCCO)nc2Cl)CCN1C1CCN(Cc2ccc(OC(F)(F)F)cc2O)CC1` [compound 166], the IC50 was under 25 nM. On to `CC[C@H]1CN(c2nc(N)c(C(=O)NCCO)nc2Cl)CCN1C1CCN(Cc2ccc(Cl)cc2C2=NCCN2)CC1` [compound 167], for which the IC50 was under 25 nM. `CC[C@H]1CN(c2nc(N)c(C(=O)NCCO)nc2Cl)CCN1C1CCN(Cc2ccc(OC(F)(F)F)cc2OCCO)CC1` [compound 168]: the IC50 is under 25 nM. On to `CC[C@H]1CN(c2nc(N)c(C(=O)NCCO)nc2Cl)CCN1C1CCN(Cc2ccc(Cl)cc2OCCCO)CC1` [compound 169], for which the IC50 was under 25 nM. The result for `CC[C@H]1CN(c2nc(N)c(C(=O)NCCO)nc2Cl)CCN1C1CCN(C(CCO)c2ccc(Cl)cc2)CC1` (stereo partly drawn) [compound 170] reads under 25 nM.

Consider `CC[C@H]1CN(c2nc(N)c(C(=O)NCCO)nc2Cl)CCN1C1CCN(Cc2ccc(Cl)cc2-c2cnc(N)nc2)CC1` [compound 171], for which the IC50 is under 25 nM. The same measure for `CC[C@H]1CN(c2nc(N)c(C(=O)NCCO)nc2Cl)CCN1C1CCN(Cc2ccc(F)c(F)c2N2CC[C@H](O)C2)CC1` [compound 172]: under 25 nM; for `CC[C@H]1CN(c2nc(N)c(C(=O)NCCO)nc2Cl)CCN1C1CCN(Cc2ccc(C#N)cc2OCCO)CC1` [compound 173]: under 25 nM; for `CC[C@H]1CN(c2nc(N)c(C(=O)NCCO)nc2Cl)CCN1C1CCN(Cc2ccc(OC(F)(F)F)cc2OCC(N)=O)CC1` [compound 174]: under 25 nM. The result for `CC[C@H]1CN(c2nc(N)c(C(=O)NCCO)nc2Cl)CCN1C1CCN([C@@H](C(=O)OC)c2ccc(C#N)cc2)CC1` [compound 175] reads under 25 nM. The same measure for `CC[C@H]1CN(c2nc(N)c(C(=O)NCCO)nc2Cl)CCN1C1CCN(Cc2ccc(Cl)cc2C(=O)NCCO)CC1` [compound 176]: under 25 nM; for `CC[C@H]1CN(c2nc(N)c(C(=O)NCCO)nc2Cl)CCN1C1CCN([C@@H](C(=O)O)c2ccc(Cl)cc2)CC1` [compound 177]: 25 to 100 nM.
